Measurements taken from patent publication US20250084095A1, “Aminopyrimidine Derivatives as Cyclin-Dependent Kinase Inhibitors” (Accutar Biotechnology Inc., priority 2023, published 2025).

Tests used:
[1] = test system: Phospho-Rb (Ser807/811) in MCF7 cells; experiment: Phospho-Rb expression inhibition in MCF7 cells quantified by in cell Western; type: cell-based, human; details: Homo sapiens, MCF7, 24 h, 24 hours, in cell Western, read-out: MCF7 pRb IC50
Summary of the method: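 MCF7 cells were seeded at 20,000/well, grown overnight, then treated 24 h at 37 °C with compound dilutions (0.1% DMSO from 1000× stocks). Fixed cells were co-stained for phospho-Rb Ser807/811 and total Rb. Near-infrared dual-channel in-cell Western imaging was the read-out.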

22RV1 cells = experiment: Cell growth inhibition of 22RV1 cells (CellTiter-Glo); type: cell-based; details: Homo sapiens, 22Rv1, 120 h, 5 days, CellTiter-Glo, read-out: 22RV1 Cell Growh GI50
Summary of the method: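 22RV1 cells were plated in RPMI1640 with FBS (20% in one version, 10% in the other) and dosed next day at various concentrations from DMSO stocks. After 5 days at 37 °C, viability was measured by CellTiter-Glo luminescence.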

Row | Compound | IC50 [1] [µM] | GI50 (22RV1 cells) [µM]
1 | Cc1c(CN2CCOC2=O)n(C(C)C)c2cc(-c3nc(N[C@@H]4C[C@H]5CO[C@H](O5)[C@H]4O)ncc3F)ccc2c1=O [Compound 211, 3-((7-(5-fluoro-2-(((1S,3R,4S,5R)-4-hydroxy-6,8-dioxabicyclo[3.2.1]octan-3-yl)amino)pyrimidin-4-yl)-1-isopropyl-3-methyl-4-oxo-1,4-dihydroquinolin-2-yl)methyl)oxazolidin-2-one] | > 1 | > 3
2 | CC(C)n1c(N2CCOC2=O)nc2c(F)cc(-c3nc(N[C@@H]4C[C@H]5CO[C@H](O5)[C@H]4O)ncc3Cl)cc21 [Compound 272, 3-(6-(5-chloro-2-(((1S,3R,4S,5R)-4-hydroxy-6,8-dioxabicyclo[3.2.1]octan-3-yl)amino)pyrimidin-4-yl)-4-fluoro-1-isopropyl-1H-benzo[d]imidazol-2-yl)oxazolidin-2-one] | 0.04 to 0.15 | 0.45 to 3
3 | CC(C)n1c(C2(F)COC2)nc2c(F)cc(-c3nc(N[C@@H]4C[C@H]5CO[C@H](O5)[C@H]4O)ncc3Cl)cc21 [Compound 170, (1S,3R,4S,5R)-3-((5-chloro-4-(4-fluoro-2-(3-fluorooxetan-3-yl)-1-isopropyl-1H-benzo[d]imidazol-6-yl)pyrimidin-2-yl)amino)-6,8-dioxabicyclo[3.2.1]octan-4-ol] | 0.04 to 0.15 | 0.45 to 3
4 | Cc1c(CN)n(C(C)C)c2cc(-c3nc(N[C@@H]4C[C@H]5CO[C@H](O5)[C@H]4O)ncc3F)ccc2c1=O [Compound 193, 2-(aminomethyl)-7-(5-fluoro-2-(((1S,3R,4S,5R)-4-hydroxy-6,8-dioxabicyclo[3.2.1]octan-3-yl)amino)pyrimidin-4-yl)-1-isopropyl-3-methylquinolin-4(1H)-one] | 0.15 to 1 | 0.12 to 0.45
5 | Cc1c(-c2nc(N[C@@H]3C[C@H]4CO[C@H](O4)[C@H]3O)ncc2F)sc2cc(CN3CCOCC3)n(C)c(=O)c12 [Compound 232, 2-(5-fluoro-2-(((1S,3R,4S,5R)-4-hydroxy-6,8-dioxabicyclo[3.2.1]octan-3-yl)amino)pyrimidin-4-yl)-3,5-dimethyl-6-(morpholinomethyl)thieno[3,2-c]pyridin-4(5H)-one] | 0.15 to 1 | 0.45 to 3
6 | Cc1c(C(F)F)c(=O)c2ccc(-c3nc(N[C@@H]4C[C@H]5CO[C@H](O5)[C@H]4O)ncc3F)cc2n1C(C)C [Compound 192, 3-(difluoromethyl)-7-(5-fluoro-2-(((1S,3R,4S,5R)-4-hydroxy-6,8-dioxabicyclo[3.2.1]octan-3-yl)amino)pyrimidin-4-yl)-1-isopropyl-2-methylquinolin-4(1H)-one] | 0.15 to 1 | 0.12 to 0.45
7 | CC(C)(O)c1cnc2c(Cl)cc(-c3nc(N[C@@H]4C[C@H]5CO[C@H](O5)[C@H]4O)ncc3Cl)cc2c1Cl [Compound 286, (1S,3R,4S,5R)-3-((5-chloro-4-(4,8-dichloro-3-(2-hydroxypropan-2-yl)quinolin-6-yl)pyrimidin-2-yl)amino)-6,8-dioxabicyclo[3.2.1]octan-4-ol] | ≤ 0.04 | ≤ 0.12
8 | Cc1c(-c2nc(N[C@@H]3C[C@H]4CO[C@H](O4)[C@H]3O)ncc2F)sc2cc(CN3[C@@H](C)COC[C@@H]3C)n(C)c(=O)c12 [Compound 215, 6-(((3S,5S)-3,5-dimethylmorpholino)methyl)-2-(5-fluoro-2-(((1S,3R,4S,5R)-4-hydroxy-6,8-dioxabicyclo[3.2.1]octan-3-yl)amino)pyrimidin-4-yl)-3,5-dimethylthieno[3,2-c]pyridin-4(5H)-one] | 0.04 to 0.15 | 0.45 to 3
9 | CC(C)c1cn(C)c(=O)c2ccc(-c3nc(N[C@@H]4C[C@H]5CO[C@H](O5)[C@H]4O)ncc3Cl)cc12 [Compound 236, 6-(5-chloro-2-(((1S,3R,4S,5R)-4-hydroxy-6,8-dioxabicyclo[3.2.1]octan-3-yl)amino)pyrimidin-4-yl)-4-isopropyl-2-methylisoquinolin-1(2H)-one] | 0.15 to 1 | 0.45 to 3
10 | CC(C)n1c(-c2cnn(C)c2)nc2c(F)cc(-c3nc(N[C@@H]4C[C@H]5CO[C@H](O5)[C@H]4O)ncc3Cl)cc21 [Compound 187, (1S,3R,4S,5R)-3-((5-chloro-4-(4-fluoro-1-isopropyl-2-(1-methyl-1H-pyrazol-4-yl)-1H-benzo[d]imidazol-6-yl)pyrimidin-2-yl)amino)-6,8-dioxabicyclo[3.2.1]octan-4-ol] | 0.15 to 1 | 0.12 to 0.45
11 | CC(C)n1c([C@H]2CCOC2)nc2c(F)cc(-c3nc(N[C@@H]4C[C@H]5CO[C@H](O5)[C@H]4O)ncc3Cl)cc21 [Compound 267, (1S,3R,4S,5R)-3-((5-chloro-4-(4-fluoro-1-isopropyl-2-((R)-tetrahydrofuran-3-yl)-1H-benzo[d]imidazol-6-yl)pyrimidin-2-yl)amino)-6,8-dioxabicyclo[3.2.1]octan-4-ol] | 0.04 to 0.15 | 0.12 to 0.45
12 | CN(C)C(=O)c1cc2c(F)cc(-c3nc(N[C@@H]4C[C@H]5CO[C@H](O5)[C@H]4O)ncc3Cl)cc2n1C1CCCC1 [Compound 183, 6-(5-chloro-2-(((1S,3R,4S,5R)-4-hydroxy-6,8-dioxabicyclo[3.2.1]octan-3-yl)amino)pyrimidin-4-yl)-1-cyclopentyl-4-fluoro-N,N-dimethyl-1H-indole-2-carboxamide] | > 1 | > 3
13 | CC(C)n1c(CN2[C@@H](C)COC[C@@H]2C)c(F)c(=O)c2ccc(-c3nc(N[C@@H]4C[C@H]5CO[C@H](O5)[C@H]4O)ncc3F)cc21 [Compound 200, 2-(((3S,5S)-3,5-dimethylmorpholino)methyl)-3-fluoro-7-(5-fluoro-2-(((1S,3R,4S,5R)-4-hydroxy-6,8-dioxabicyclo[3.2.1]octan-3-yl)amino)pyrimidin-4-yl)-1-isopropylquinolin-4(1H)-one] | 0.04 to 0.15 | 0.12 to 0.45

Results, then the molecule that gave them:

Row | IC50 [1] [µM] | GI50 (22RV1 cells) [µM] | Compound
14 | 0.04 to 0.15 | 0.12 to 0.45 | CC(C)n1c(C(C)(C)N2CCOCC2)nc2c(F)cc(-c3nc(N[C@@H]4C[C@H]5CO[C@H](O5)[C@H]4O)ncc3Cl)cc21 [Compound 219, (1S,3R,4S,5R)-3-((5-chloro-4-(4-fluoro-1-isopropyl-2-(2-morpholinopropan-2-yl)-1H-benzo[d]imidazol-6-yl)pyrimidin-2-yl)amino)-6,8-dioxabicyclo[3.2.1]octan-4-ol]
15 | 0.15 to 1 | > 3 | CC(C)(O)c1cnc2cc(-c3nc(N[C@@H]4C[C@H]5CO[C@H](O5)[C@H]4O)ncc3Cl)cc(F)c2n1 [Compound 295, (1S,3R,4S,5R)-3-((5-chloro-4-(8-fluoro-2-(2-hydroxypropan-2-yl)quinoxalin-6-yl)pyrimidin-2-yl)amino)-6,8-dioxabicyclo[3.2.1]octan-4-ol]
16 | 0.04 to 0.15 | ≤ 0.12 | CC(C)(O)c1ccnc2c(F)cc(-c3nc(N[C@@H]4C[C@H]5CO[C@H](O5)[C@H]4O)ncc3Cl)cc12 [Compound 251, (1S,3R,4S,5R)-3-((5-chloro-4-(8-fluoro-4-(2-hydroxypropan-2-yl)quinolin-6-yl)pyrimidin-2-yl)amino)-6,8-dioxabicyclo[3.2.1]octan-4-ol]
17 | 0.04 to 0.15 | 0.12 to 0.45 | C[C@H]1COc2c(-c3nc(N[C@@H]4C[C@H]5CO[C@H](O5)[C@H]4O)ncc3Cl)cc(F)c3nc(C(C)(C)O)n1c23 [Compound 37, (1S,3R,4S,5R)-3-((5-chloro-4-((S)-8-fluoro-2-(2-hydroxypropan-2-yl)-3-methyl-3,4-dihydro-5-oxa-1,2a-diazaacenaphthylen-6-yl)pyrimidin-2-yl)amino)-6,8-dioxabicyclo[3.2.1]octan-4-ol]
18 | ≤ 0.04 | ≤ 0.12 | Cc1c(C(C)(C)O)cnc2c(Cl)cc(-c3nc(N[C@@H]4C[C@H]5CO[C@H](O5)[C@H]4O)ncc3F)cc12 [Compound 283, (1S,3R,4S,5R)-3-((4-(8-chloro-3-(2-hydroxypropan-2-yl)-4-methylquinolin-6-yl)-5-fluoropyrimidin-2-yl)amino)-6,8-dioxabicyclo[3.2.1]octan-4-ol]
19 | 0.15 to 1 | 0.12 to 0.45 | CC(C)n1c([C@@H]2COC(=O)N2)nc2c(F)cc(-c3nc(N[C@@H]4C[C@H]5CO[C@H](O5)[C@H]4O)ncc3Cl)cc21 [Compound 184, (R)-4-(6-(5-chloro-2-(((1S,3R,4S,5R)-4-hydroxy-6,8-dioxabicyclo[3.2.1]octan-3-yl)amino)pyrimidin-4-yl)-4-fluoro-1-isopropyl-1H-benzo[d]imidazol-2-yl)oxazolidin-2-one]
20 | 0.04 to 0.15 | 0.12 to 0.45 | CC1OCC(C)n2c1nc1c(F)cc(-c3nc(N[C@@H]4C[C@H]5CO[C@H](O5)[C@H]4O)ncc3Cl)cc12 (stereo partly drawn) [Compound 49, (1S,3R,4S,5R)-3-((5-chloro-4-(9-fluoro-1,4-dimethyl-3,4-dihydro-1H-benzo[4,5]imidazo[2,1-c][1,4]oxazin-7-yl)pyrimidin-2-yl)amino)-6,8-dioxabicyclo[3.2.1]octan-4-ol]
21 | > 1 | > 3 | CC(C)(O)c1cc2cc(-c3nc(N[C@@H]4C[C@H]5CO[C@H](O5)[C@H]4O)ncc3Cl)cc(F)c2nn1 [Compound 258, (1S,3R,4S,5R)-3-((5-chloro-4-(8-fluoro-3-(2-hydroxypropan-2-yl)cinnolin-6-yl)pyrimidin-2-yl)amino)-6,8-dioxabicyclo[3.2.1]octan-4-ol]
22 | ≤ 0.04 | ≤ 0.12 | CC(C)(O)c1cnc2c(Cl)cc(-c3nc(N[C@@H]4C[C@H]5CO[C@H](O5)[C@H]4O)ncc3F)cc2c1Cl [Compound 285, (1S,3R,4S,5R)-3-((4-(4,8-dichloro-3-(2-hydroxypropan-2-yl)quinolin-6-yl)-5-fluoropyrimidin-2-yl)amino)-6,8-dioxabicyclo[3.2.1]octan-4-ol]
